Patent publication US7456291B2, “Use of a vitamin combination for the treatment of primary headaches” (priority 2000, dated 2008)
Read-outs that look alike come from different tables or passages of the source.

Key:
[1] = system: classical migraine (migraine with an aura); test: Clinical cases: treatment of classical migraine (migraine with an aura); format: in vivo, human patient; conditions: 2nd series, 50 mg nicotinamide alone orally twice a day
Experimental: 1st case—a person with a classical migraine (or a migraine with an aura). The patient had been suffering from classical migraine symptoms for 30 years. Initially, the symptoms were located in the right temporal region and later spread to the top and to the left temple with characteristic pulsations, accompanied by photophobia, vertigo and buzzing ears. The attacks lasted for about 10 days on a monthly basis.
Later, during a migraine attack, the patient started a treatment based on 50 mg of nicotinamide+2.5 mg of riboflavin taken orally twice a day. […] During this period the patient had completely suspended the old therapy. They continued with the new treatment, according to the present invention, for another 7 days to then temporarily suspend it. Later on, the dosage was halved for 10 days a month for preventive purposes.
1st case—person one with a classical migraine (or migraine with an aura). The patient had been suffering from classical migraine symptoms for 15 years and had photophobia, flashing scotoma and vertigo. […] The symptoms were located on the right side, occurred about twice a month and lasted a week, on average. When suffering from migraines the patient could not perform any activity. The acute episodes were preceded by photophobia, buzzing ears and visual disorders (scotoma). […]

cluster headaches = test: Clinical cases: treatment of cluster headaches; format: in vivo, human patient; conditions: 2nd series, 4th case; 50 mg nicotinamide alone orally twice a day
Experimental: 4th case—a person with cluster headaches. The patient had been suffering from nocturnal headaches for about 15 years. The headaches started about 3 hours after sleep onset and presented a left orbital pain, lachrymation, nasal congestion and an oedema of the left cheek.
They continued with the therapy for another 15 days and then the dosage was halved and treatment continued for 15 days a month.
4th case—a person with cluster headaches. The patient suffered from cluster headaches that made them wake up in the night with lacerating head pains. The pains were accompanied by lachrymation and rhinorrhea.

complicated migraine = test: Clinical cases: treatment of complicated migraine; format: in vivo, human patient; conditions: 2nd series, 2nd case; 50 mg nicotinamide alone orally twice a day
[2] = system: common migraine (migraine without an aura); test: Clinical cases: treatment of common migraine (migraine without an aura); format: in vivo, human patient; conditions: 2nd series, 3rd case; 50 mg nicotinamide alone orally twice a day
[3] = system: primary headaches (common, classical, complicated migraine, cluster headache); test: Clinical experimentation in primary headache forms, overall statements; conditions: single agent; for effectiveness in combating the forms of headache considered: systemic administration at the typical dosage used for pellagra
[4] = system: primary headaches (common, classical, complicated migraine, cluster headache); conditions: human, in vivo

Compound	time until migraine symptoms attenuated ([1]; 1st case one) [days]	complete disappearance of migraine symptoms ([1]; 1st case)	time until the migraine returned (lesser intensity) under continued treatment ([1]; 1st case)	time until the headaches attenuated (cluster headaches) [days]	time until the problem was attenuated (complicated migraine) [days]	time until the migraine was partially attenuated [2]	effectiveness in combating the forms of headache considered [3]	secondary reactions reported for high doses ([3]; systemic administration in doses well below those for hypercholesterolemy)	secondary reactions reported for high doses [4]
NC(=O)c1cccnc1 [nicotinamide]	5	did not disappear completely	about 10 days	5 to 6	6	about 5 days	not very effective	does not lead to the secondary reactions	–
O=C(O)c1cccnc1 [nicotinic acid, 3-pyridincarboxylic acid]	–	–	–	–	–	–	not very effective	–	does not lead to the secondary reactions
